US20170087174A1, “COMBINATION THERAPY REGIMEN FOR TREATMENT OF HCV” (JANSSEN PHARMACEUTICALS, INC., priority 2015, published 2017)

Key:
[1] = tested on: CYP3A4/5; assay: CYP3A4/5 inhibition; assay type: in vitro ADME; conditions: up to 10 μM
[2] = biological target: MRP2/3 (Homo sapiens, UniProt O15438); conditions: in vitro; cited from earlier work
[3] = biological target: T1, 2B6 (Homo sapiens, UniProt P20813); assay: CYP2B6 inhibition; assay type: in vitro ADME; conditions: up to 10 μM
T1 sequence (P20813 1-491): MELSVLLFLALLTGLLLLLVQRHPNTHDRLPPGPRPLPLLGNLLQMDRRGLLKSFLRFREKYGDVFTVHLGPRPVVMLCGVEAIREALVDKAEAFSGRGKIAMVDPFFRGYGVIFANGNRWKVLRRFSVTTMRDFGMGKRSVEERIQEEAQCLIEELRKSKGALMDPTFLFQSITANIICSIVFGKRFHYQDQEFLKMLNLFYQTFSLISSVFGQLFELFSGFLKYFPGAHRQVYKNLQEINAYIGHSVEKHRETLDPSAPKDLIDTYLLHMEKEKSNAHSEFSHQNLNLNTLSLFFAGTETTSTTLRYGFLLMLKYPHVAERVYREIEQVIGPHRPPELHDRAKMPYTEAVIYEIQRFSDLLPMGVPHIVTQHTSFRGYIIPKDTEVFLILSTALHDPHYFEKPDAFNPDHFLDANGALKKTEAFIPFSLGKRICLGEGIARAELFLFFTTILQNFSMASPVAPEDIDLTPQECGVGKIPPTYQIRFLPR

[4] = biological target: T2, 1A2 (Homo sapiens, UniProt P05177); assay: CYP1A2 inhibition; assay type: in vitro ADME; conditions: up to 10 μM
T2 sequence (P05177 1-516): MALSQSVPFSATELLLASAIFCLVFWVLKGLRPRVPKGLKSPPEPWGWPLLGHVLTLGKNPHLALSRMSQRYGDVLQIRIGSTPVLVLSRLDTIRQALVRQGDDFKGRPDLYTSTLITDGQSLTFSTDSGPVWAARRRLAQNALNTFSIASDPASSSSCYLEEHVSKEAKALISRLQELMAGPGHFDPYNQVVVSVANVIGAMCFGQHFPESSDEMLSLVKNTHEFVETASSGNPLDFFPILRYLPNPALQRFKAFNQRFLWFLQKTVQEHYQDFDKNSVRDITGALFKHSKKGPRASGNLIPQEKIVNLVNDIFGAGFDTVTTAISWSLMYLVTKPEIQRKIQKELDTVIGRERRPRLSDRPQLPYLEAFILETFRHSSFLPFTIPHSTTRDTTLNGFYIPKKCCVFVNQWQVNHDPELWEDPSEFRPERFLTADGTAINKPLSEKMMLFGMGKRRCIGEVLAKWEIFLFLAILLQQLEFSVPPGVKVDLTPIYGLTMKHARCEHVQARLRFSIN

[5] = tested on: Digoxin (a pgp-substrate); conditions: SMV co-administered with Digoxin; cited from earlier work
[6] = tested on: Rosuvastatin (substrate of OATPs & BCRP); conditions: SMV co-administered with Rosuvastatin; cited from earlier work

Sequence of MRP2/3 (O15438 whole entry): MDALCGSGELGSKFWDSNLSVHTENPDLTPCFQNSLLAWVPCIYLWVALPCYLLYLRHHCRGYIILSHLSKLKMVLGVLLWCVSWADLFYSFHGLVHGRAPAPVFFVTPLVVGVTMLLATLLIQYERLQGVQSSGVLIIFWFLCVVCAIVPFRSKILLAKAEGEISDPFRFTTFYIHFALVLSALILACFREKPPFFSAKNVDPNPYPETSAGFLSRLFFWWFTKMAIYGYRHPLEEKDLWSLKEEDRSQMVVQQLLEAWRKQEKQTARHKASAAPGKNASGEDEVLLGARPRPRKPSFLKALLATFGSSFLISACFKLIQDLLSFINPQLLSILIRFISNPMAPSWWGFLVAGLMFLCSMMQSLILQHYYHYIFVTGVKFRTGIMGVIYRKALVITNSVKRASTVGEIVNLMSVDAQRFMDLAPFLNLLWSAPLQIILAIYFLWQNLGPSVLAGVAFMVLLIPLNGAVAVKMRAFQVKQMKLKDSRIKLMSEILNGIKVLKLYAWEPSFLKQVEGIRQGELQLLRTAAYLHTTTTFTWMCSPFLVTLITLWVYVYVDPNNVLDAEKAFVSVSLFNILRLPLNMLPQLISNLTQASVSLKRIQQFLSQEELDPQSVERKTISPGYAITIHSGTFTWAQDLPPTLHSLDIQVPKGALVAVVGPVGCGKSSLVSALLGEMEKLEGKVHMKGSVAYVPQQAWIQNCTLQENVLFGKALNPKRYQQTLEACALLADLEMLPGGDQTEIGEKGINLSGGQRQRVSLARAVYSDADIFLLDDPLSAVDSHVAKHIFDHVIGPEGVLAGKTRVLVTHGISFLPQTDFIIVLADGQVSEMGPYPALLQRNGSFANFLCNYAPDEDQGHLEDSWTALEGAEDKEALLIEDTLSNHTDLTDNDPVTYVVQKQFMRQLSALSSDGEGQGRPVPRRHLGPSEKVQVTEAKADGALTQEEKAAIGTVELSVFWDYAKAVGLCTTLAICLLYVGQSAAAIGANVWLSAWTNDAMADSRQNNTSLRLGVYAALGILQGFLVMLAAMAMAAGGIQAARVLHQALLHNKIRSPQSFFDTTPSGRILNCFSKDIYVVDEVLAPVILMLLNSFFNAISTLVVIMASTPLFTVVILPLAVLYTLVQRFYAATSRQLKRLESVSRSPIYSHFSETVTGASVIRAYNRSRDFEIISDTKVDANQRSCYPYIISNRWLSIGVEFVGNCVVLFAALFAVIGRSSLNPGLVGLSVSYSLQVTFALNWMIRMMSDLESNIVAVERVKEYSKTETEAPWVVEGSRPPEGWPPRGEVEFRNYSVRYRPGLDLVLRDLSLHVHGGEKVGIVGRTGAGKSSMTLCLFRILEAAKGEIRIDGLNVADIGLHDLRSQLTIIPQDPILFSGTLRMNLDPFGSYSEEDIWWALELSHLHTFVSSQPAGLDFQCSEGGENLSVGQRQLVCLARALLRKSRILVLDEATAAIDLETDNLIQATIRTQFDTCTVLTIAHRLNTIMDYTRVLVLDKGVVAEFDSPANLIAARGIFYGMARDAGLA

SMILES | inhibition of CYP3A4/5 [1] | MRP3 inhibition (in words) [2] | inhibition of 2B6 [3] | inhibition of 1A2 [4] | increase in exposure of Digoxin [5] [%] | increase in Rosuvastatin exposure [6] [fold]
COC(=O)N[C@H](C(=O)N1[C@H](c2nc3cc(-c4cc5ccc4CCc4ccc(c(-c6ccc7[nH]c([C@@H]8C[C@@H]9CCCC[C@@H]9N8C(=O)[C@@H](NC(=O)OC)C(C)C)nc7c6)c4)CC5)ccc3[nH]2)C[C@@H]2CCCC[C@@H]21)C(C)C [ODV, Odalasvir] | no inhibition | no inhibition | no inhibition | no inhibition |  | 
COc1ccc2c(O[C@@H]3C[C@H]4C(=O)N[C@]5(C(=O)NS(=O)(=O)C6CC6)C[C@H]5/C=C\CCCCN(C)C(=O)[C@@H]4C3)cc(-c3nc(C(C)C)cs3)nc2c1C [SMV, Simeprevir, reference compound] |  |  |  |  | 35 | 3
